# PubChem BioAssay AID1417 (Emory University Molecular Libraries Screening Center, 2008)
# Biological target: Induced myeloid leukemia cell differentiation protein Mcl-1 (Homo sapiens) (UniProt Q07820)
# Experiment: Mcl-1 Noxa peptide disruption concentration-response – biochemical, TR-FRET, dose response (AID 1417)
# Details: Mcl-1/Noxa peptide interaction, cell-free TR-FRET (terbium/rhodamine), 2 h; measured here: absolute IC50
# Induced myeloid leukemia cell differentiation protein Mcl-1 (Homo sapiens), sequence (Q07820 whole entry, looked up): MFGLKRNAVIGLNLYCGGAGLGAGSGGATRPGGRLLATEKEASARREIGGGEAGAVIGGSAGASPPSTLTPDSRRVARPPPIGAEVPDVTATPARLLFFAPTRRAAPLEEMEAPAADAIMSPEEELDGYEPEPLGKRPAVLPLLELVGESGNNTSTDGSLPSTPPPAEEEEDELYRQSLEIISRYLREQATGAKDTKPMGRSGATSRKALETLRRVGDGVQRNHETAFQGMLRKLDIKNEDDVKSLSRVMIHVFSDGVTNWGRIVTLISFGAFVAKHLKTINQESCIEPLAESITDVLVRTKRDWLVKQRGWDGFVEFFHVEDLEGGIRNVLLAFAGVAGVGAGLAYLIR
row,SMILES,IC50
1,CC(C)(O)C#Cc1ccc(CN2CCN(C3CCCCC3)C(CCO)C2)cc1 (configuration not stated),> 54000 nM
2,O=C1NC(=O)/C(=C\c2ccc(O)cc2O)S1,< 400 nM
3,O=C1NC(=S)S/C1=C\c1ccc(SCc2ccco2)o1,< 400 nM
4,CCN(CC)c1ccc(NC(=O)Nc2cccc(C(C)=O)c2)cc1,> 54000 nM
5,O=c1oc2ccccc2cc1-c1csc(Nc2ccc(O)cc2)n1,716 nM
6,O=C(O)CCCN1C(=O)/C(=C/C=C/c2ccco2)SC1=S,> 54000 nM
7,COc1ccc(C(=O)n2nc(C)c(Br)c2C)cc1,> 54000 nM
8,COc1ccc(N=C2NC(=O)/C(=C\C=C\c3ccco3)S2)cc1,1480 nM
9,CCOC(=O)CSc1nc(N)c(C(=O)Nc2ccc(N(C)C)cc2)s1,523 nM
10,N#Cc1cc(-c2ccccc2)nn1-c1ccccc1,< 400 nM
11,O=C(N/N=C\C=C\c1ccco1)c1cc(-c2ccc3ccccc3c2)n[nH]1,2110 nM
12,COc1ccc(C(=O)CSc2nnc(-c3ccco3)c(-c3ccco3)n2)cc1,7950 nM
13,COc1ccc(N2C(=O)/C(=C/C=C/c3ccccc3[N+](=O)[O-])C(=O)NC2=S)cc1,< 400 nM
14,Cc1sc(-n2c(C)cc(/C=C3\SC(=S)NC3=O)c2C)c(C#N)c1C,4070 nM
15,CCN(CC)c1ccc(NC(=O)CCCOc2cccc(C)c2)cc1,> 54000 nM
16,COc1ccc(CCNC(=O)COC(=O)Cc2cccc3ccccc23)cc1,> 54000 nM
17,CCCCn1c(SCC(=O)NCCOC)nc2ccc(N3CCOCC3)cc2c1=O,> 54000 nM
18,N=C1S/C(=C\c2ccc(-c3cccc(Cl)c3)o2)C(=O)N1c1nccs1,861 nM
19,COC(=O)C1=C(C(=O)OC)C(c2cc(Cl)ccc2O)c2sc(=O)[nH]c2S1 (configuration not stated),3350 nM
20,O=C1/C(=C/C=C/c2ccco2)SC(=S)N1NS(=O)(=O)c1ccccc1,1410 nM
21,COc1ccc(-c2cc3nc4ccccc4n3c(N)c2C#N)cc1,4450 nM
22,C=C(C)C(=O)Nc1cccc(C2=NOC3(C2)C[C@H](C(N)=O)N(C(=O)C(c2ccccc2)c2ccccc2)C3)c1 (some centres not stated),4430 nM
23,O=C1NC(=S)N/C1=C/c1cccn1-c1ccc([N+](=O)[O-])cc1,> 54000 nM
24,O=C(COc1cccnc1[N+](=O)[O-])c1ccc(Cl)s1,2840 nM
25,CC1=Nc2cccc3cccc(c23)N1,2630 nM
26,COc1cc(/C=C2\SC(=S)N(CC(=O)Nc3ccc(O)cc3)C2=O)cc(OC)c1OC,< 400 nM

row,SMILES,IC50
1,Cn1cnnc1SCC(=O)Nc1sc2c(c1C(N)=O)CCC2,1810 nM
2,Cc1sc(NC(=O)c2sc3nc4c(C)cccc4cc3c2N)c(C#N)c1C,< 400 nM
3,CN(C)c1ccc(NC(=O)/C=C/c2c(Cl)cccc2Cl)cc1,> 54000 nM
4,O=[N+]([O-])c1ccc(/C=N/NC(=S)Nc2ccc(Cl)cc2Cl)s1,1340 nM
5,Cc1nnc(NC(=O)COc2ccc3c(C)cc(=O)oc3c2)s1,5880 nM
6,Cc1ccc(/C=C2\SC(=S)N(/N=C/c3cc([N+](=O)[O-])ccc3O)C2=O)o1,< 400 nM
7,C/C(=N\NC(=O)c1cccc(N/N=C(\C)c2cc(O)ccc2O)c1)c1cc(O)ccc1O,< 400 nM
8,O=C(O)c1cc(N2N=C(C(F)(F)F)/C(=C/C=C/c3ccco3)C2=O)ccc1Cl,< 400 nM
9,Cc1ccc(NC(=O)CN2C(=O)N/C(=C/c3cccn3-c3ccc(C(=O)O)cc3)C2=O)cc1,> 54000 nM
10,COc1cc(/C=C2\SC(=O)N(Cc3ccc(F)cc3)C2=O)cc([N+](=O)[O-])c1O,7010 nM
11,COc1ccc(NC(=O)c2cc3cccc(OC)c3oc2=Nc2ccc(C(=O)O)cc2)cc1OC,2380 nM
12,COc1ccc2c(c1)CC/C(=C\Nc1ccc3c(c1)OCO3)C2=O,> 54000 nM
13,Cc1cc(C(=O)COC(=O)c2cc(O)c3ccccc3c2O)c(C)n1CC1CCCO1 (configuration not stated),< 400 nM
14,CC(C)CNC(=O)c1c(N)n(Cc2ccco2)c2nc3ccccc3nc12,> 54000 nM
15,O=C(O)C1Nc2c(O)cc(Cl)c([N+](=O)[O-])c2C2C=CCC12 (configuration not stated),< 400 nM
16,O=c1nc2s/c(=C\c3ccc(-c4ccccc4[N+](=O)[O-])o3)c(=O)n2nc1-c1ccccc1,< 400 nM
17,COc1ccccc1C1=Nc2cccc3cccc(c23)N1,> 54000 nM
18,O=C1OCC2OC(O)C(O)C(O)C2OC(=O)c2cc(O)c(O)c(O)c2-c2c(O)c(O)c3oc(=O)c4c(c(O)c(O)c5oc(=O)c2c3c54)-c2c1cc(O)c(O)c2O (configuration not stated),< 400 nM
19,COc1ccc2c(c1)c1ccc3c(c1n2C)C(=O)C=CC3=O,< 400 nM
20,Cc1ccc(-n2c(O)c(/C=N/Nc3ccc(S(=O)(=O)N4CCOCC4)cc3[N+](=O)[O-])c3ccccc3c2=O)c(C)c1,> 54000 nM
21,Cc1nc(COC(=O)c2cc(O)c3ccccc3c2O)cs1,< 400 nM
22,CC(=O)c1ccc(NC(=O)CSc2ccsc2[N+](=O)[O-])cc1,> 54000 nM
23,O=C(Nc1ccccc1)c1ccc2nc(-c3ccco3)c(-c3ccco3)nc2c1,3830 nM
24,O=C(NCc1ccco1)c1c2c(nc3ccccc13)CCC2,3960 nM
25,O=C1CCCCC1C(=O)c1ccccc1 (configuration not stated),> 54000 nM
26,O=C(COC(=O)c1c2c(nc3ccccc13)/C(=C/c1ccco1)CC2)NC1CCCC1,2350 nM

row,SMILES,IC50
1,CC1CC(=O)c2c(cc3c(-c4c(O)cc(O)c5c(O)c6c(cc45)OC(C)CC6=O)c(O)cc(O)c3c2O)O1 (configuration not stated),< 400 nM
2,CC(=O)N(C1=C(Cl)C(=O)c2ccccc2C1=O)C1CCCCC1,< 400 nM
3,Cc1cc(=O)n2[nH]c(-c3ccsc3-n3c(C)ccc3C)cc2n1,2890 nM
4,CSc1cnn(Cc2ccccc2)c(=O)c1SCc1ccccc1,> 54000 nM
5,O=C1CCCC2=C1C(c1ccc(O)c(O)c1)c1c(ccc3ncccc13)N2 (configuration not stated),< 400 nM
6,O=[N+]([O-])c1ccc(N/N=C/c2ccc(O)c(O)c2O)c(S(=O)(=O)N2CCOCC2)c1,< 400 nM
7,COc1cc(/C=N/Nc2nc(C)nc3c2cnn3-c2ccccc2)ccc1O,13300 nM
8,O=C(Nc1ccc(S(=O)(=O)Nc2nccs2)cc1)/C(=C/c1ccccc1Cl)NC(=O)c1ccccc1,2930 nM
9,CC(C)CC1NC(=O)N(CC(=O)N2c3ccccc3NC(=O)C2(C)C)C1=O (configuration not stated),> 54000 nM
10,CCN(CC)S(=O)(=O)c1ccc(N2CCOCC2)c(NC(=O)c2c3c(nc4ccccc24)CCC3)c1,5730 nM
11,C=C(C)C(=O)Nc1cccc(C2=NOC3(C2)C[C@@H](C(N)=O)N(C(=O)c2ccc(Cl)cc2)C3)c1 (some centres not stated),< 400 nM
12,CCCCN(CC)CCNc1c(N2CCN(C(=O)OCC)CC2)c(=O)c1=O,2170 nM
13,CC1=C(C#N)C(=O)NC(=O)/C1=C\c1ccc(-c2ccc(C)cc2[N+](=O)[O-])o1,< 400 nM
14,CN1C=C/C(=C\c2cc[n+](C)c3ccccc23)c2ccccc21,< 400 nM
15,O=C(O)CCn1cc(C=C2C(=O)NC(=S)NC2=O)c(-c2cc3ccccc3oc2=O)n1,3080 nM
16,CC(C)c1ccc(S(=O)(=O)/N=C2/C=C(Sc3ncn[nH]3)C(=O)c3ccccc32)cc1,< 400 nM
17,O=[N+]([O-])c1cc(CN2CCOCC2)c2cccnc2c1O,< 400 nM
18,CC(C)CCC(CCN1CCCC1)c1ccc2c(c1)OCO2 (configuration not stated),> 54000 nM
19,Clc1cccc(/C=N/Nc2nc(Cl)nc3ccccc23)c1,> 54000 nM
20,Fc1cc(F)c2nc(Nc3nc4cc5c(cc4s3)OCO5)sc2c1,< 400 nM
21,CC(C)c1nc2sc3c(=O)[nH]c(=S)[nH]c3c2c2c1CCC2,7390 nM
22,COC(=O)N/N=C/c1cc(N=Nc2ccccc2Cl)ccc1O,3740 nM
23,Cc1ccc(N2C(=O)NC(=O)/C(=C/c3cnc(-c4ccccc4)nc3)C2=O)cc1C,16300 nM
24,O=C(Cc1cccs1)N/N=C/C=C\c1ccco1,> 54000 nM
25,Nc1scc2c(C(=O)N/N=C/c3ccc(Cl)cc3)nn(-c3ccccc3)c(=O)c12,1320 nM
